This note sets out measurements from patent US9656949B2, “Substituted carboxylic acid derivatives as aggrecanase inhibitors for the treatment of osteoarthritis” (MERCK PATENT GMBH, priority 2013, dated 2017).

One data set can be described thus: Solubility pH7.4. The following applies: pH 7.4, aqueous buffer. Format: physicochemical.
Data set [1] concerns the target T1, human recombinant AdamTS-5 (Homo sapiens, UniProt Q9UNA0).
T1 construct: purchased R&D systems, Wiesbaden, Germany
T1 sequence (Q9UNA0 262-930): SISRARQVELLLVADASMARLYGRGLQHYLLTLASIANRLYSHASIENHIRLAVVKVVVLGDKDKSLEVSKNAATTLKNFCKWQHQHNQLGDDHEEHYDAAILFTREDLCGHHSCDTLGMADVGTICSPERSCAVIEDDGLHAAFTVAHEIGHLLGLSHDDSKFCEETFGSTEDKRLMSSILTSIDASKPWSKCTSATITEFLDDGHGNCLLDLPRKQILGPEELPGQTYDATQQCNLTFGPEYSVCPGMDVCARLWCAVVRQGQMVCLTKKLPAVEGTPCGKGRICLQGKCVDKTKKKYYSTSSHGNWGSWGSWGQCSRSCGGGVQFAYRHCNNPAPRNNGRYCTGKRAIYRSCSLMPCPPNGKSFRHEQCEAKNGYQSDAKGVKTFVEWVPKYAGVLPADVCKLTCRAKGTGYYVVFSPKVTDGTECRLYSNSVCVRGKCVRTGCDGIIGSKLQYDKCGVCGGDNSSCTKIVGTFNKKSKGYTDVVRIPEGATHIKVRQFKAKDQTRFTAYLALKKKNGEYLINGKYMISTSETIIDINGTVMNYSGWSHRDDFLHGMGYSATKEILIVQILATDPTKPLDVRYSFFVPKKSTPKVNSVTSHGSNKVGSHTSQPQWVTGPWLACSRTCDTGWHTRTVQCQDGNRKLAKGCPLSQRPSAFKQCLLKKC
Kind of data set: Biochemical activity testing of ADAMTS-5: aggrecan peptide cleavage assay (AlphaScreen). The following applies: 4.5 nM human recombinant AdamTS-5, biotinylated 43mer aggrecan peptide, 180 min at 37° C.; read-out: IC50 [ADAM-NTS5]M. The method, then: ADAMTS-5 is a metallo protease with glutamyl-endoprotease activity and cleaves aggrecan core protein at E373-A374 in the interglobular domain. To fully analyse the inhibitory potential of compounds on AdamTS-5 activity an Alphascreen® assay with a biotinylated 43mer aggrecan oligopeptide as substrate was performed. Cleavage by ADAMTS-5 caused production of a neoepitop N-terminus ARGS at the C-terminal fragment. The detection of this product is performed with streptavidin-AlphaScreen® donor beads binding to the biotin label and an anti-neoepitop (“ARGSV”) antibody that anchors anti-mouse IgG-coated AlphaLisa® acceptor beads to the other end of the generated fragment. Thereby, donor and acceptor beads get in proximity and a luminescence Alphascreen® signal is generated via the release of singlet oxygen. The cleavage activity was detectable directly by the increase in Alphascreen® signal.
The aggrecan peptide cleavage assay was performed as 384 well AlphaScreen® (Perkin Elmer) assay format in Perkin Elmer 384 AlphaPlate (proxiplate) shallow well microtiter plates and was used for high throughput screen in a total assay volume of 10 μl. 4.5 nM human recombinant AdamTS-5 (R&D systems, Wiesbaden, Germany) and 30 nM biotinylated peptide […]-K(bio) (custom-made, Biosynthan, Berlin, Germany) as substrate were incubated in a total volume of 6 μl (100 mM Tris/HCl, 150 mM NaCl, 10 mM CaCl2, 0.05% Brij®-35, 1% DMSO, 0.084% BSA, pH 7.5) in the absence or presence of the test compound (10 dilution concentrations) for 180 min at 37° C. The reaction was stopped and the first detection step performed by the addition of 2 μl detection solution 1 (48 mM EDTA, 8 nM aggrecan antibody N-term neoepitope ARG, mouse monoclonal BC3 antibody (MDBioproducts, Egg, Switzerland), 100 μg/ml Streptavidin Alphascreen® donor beads (Perkin Elmer, Rodgau, Germany) in 100 mM Tris/HCl, 150 mM NaCl, 0.05% Brij®-35, 0.1% BSA, pH 7.5). After an one-hour incubation at 37° C. 2 μl of the second detection solution (25 μg/ml anti-mouse AlphaLisa® acceptor beads (Perkin Elmer, Rodgau, Germany) in 100 mM Tris/HCl, 150 mM NaCl, 0.05% Brij®-35, 0.1% BSA, pH 7.5 were added. The plates were incubated for […] in the dark.
The AlphaScreen signal was measured with an Envision multimode reader (Perkin Elmer LAS Germany GmbH) with the Alphascreen protocol from Perkin Elmer (laser mode) emission wavelength 570 nm. The full value used was the inhibitor-free reaction. For the zero value a pharmacological reference was used. The inhibitory values (IC50) for the compounds were determined using either the program Symyx Assay Explorer® or Condosseo® from GeneData.

Values after ≈ are worked out from the molar mass of the structure shown.

On to `COc1cc(CNC(=O)[C@H](CC(C)C(=O)O)NC(=O)c2ccc(-c3ccccc3)cc2)cc(OC)c1OC` (mixture of isomers) [Compound 1, 4-[(Biphenyl-4-carbonyl)-amino]-2-methyl-4-(3,4,5-trimethoxy-benzylcarbamoyl)-butyric acid], for which the solubility in “Solubility pH7.4” was determined as 850 µg/mL. The 50% inhibitory concentration (IC50) in data set [1] was determined as 13 nM. On the same counts, the results for `C[C@@H](Cc1ccc(F)cc1)NC(=O)[C@H](C[C@H](C)C(=O)O)NC(=O)c1ccc(-c2ccccc2)cc1` (single isomer, unassigned) [Compound 3] are 159 µg/mL (≈ 334 µM) and 62 nM.

In “Solubility pH7.4”, `CC(Cc1ccc(F)cc1)NC(=O)[C@H](C[C@H](C)C(=O)O)NC(=O)c1ccc(-c2ccccc2)cc1` (single isomer, unassigned) [Compound 17] registered a solubility of 303 µg/mL (≈ 636 µM). Besides, in data set [1], the IC50 was 530 nM. On the same counts, the results for `C[C@@H](C[C@H](NC(=O)c1ncc(-c2ccc(F)cc2)s1)C(=O)NC(C)(C)Cc1ccc(F)cc1)C(=O)O` [Compound 2, (2S,4S)-4-[2-(4-Fluoro-phenyl)-1,1-dimethyl-ethylcarbamoyl]-4-{[5-(4-fluoro-phenyl)-thiazole-2-carbonyl]-amino}-2-methyl-butyric acid] are 912 µg/mL (≈ 1770 µM) and 47 nM. As to `C[C@@H](C[C@H](NC(=O)c1ccc(-c2ccccc2)cc1)C(=O)NC(C)(C)Cc1cccnc1)C(=O)O` [Compound 4, (2S,4S)-4-[(Biphenyl-4-carbonyl)-amino]-4-(1,1-dimethyl-2-pyridin-3-yl-ethylcarbamoyl)-2-methyl-butyric acid], the concentration for half-maximal inhibition (IC50) in data set [1] was determined as 66 nM. As to `CC(C)(Cc1ccc(F)cc1)NC(=O)[C@H](C[C@H](Cc1ccccc1)C(=O)O)NC(=O)c1ccc(-c2ccccc2)cc1` [Compound 6, (2S,4S)-2-Benzyl-4-[(biphenyl-4-carbonyl)-amino]-4-[2-(4-fluoro-phenyl)-1,1-dimethyl-ethylcarbamoyl]-butyric acid], in the data set “Solubility pH7.4”, the solubility amounted to 60 µg/mL (≈ 106 µM). For the same compound, the IC50 in data set [1] amounted to 150 nM. Compound `C[C@@H](C[C@H](NC(=O)c1ccc(-c2ccn(C)n2)cc1)C(=O)NC(C)(C)Cc1ccc(F)cc1)C(=O)O` [Compound 9, (2S,4S)-4-[2-(4-Fluoro-phenyl)-1,1-dimethyl-ethylcarbamoyl]-2-methyl-4-[4-(1-methyl-1H-pyrazol-3-yl)-benzoylamino]-butyric acid] displayed a solubility in the data set “Solubility pH7.4” of 798 µg/mL (≈ 1610 µM). The IC50 in data set [1] was found to be 180 nM.

The compound `C[C@@H](C[C@H](NC(=O)c1ccc(-c2ccccn2)cc1)C(=O)NC(C)(C)Cc1ccc(F)cc1)C(=O)O` [Compound 10, (2S,4S)-4-[2-(4-Fluoro-phenyl)-1,1-dimethyl-ethylcarbamoyl]-2-methyl-4-(4-pyridin-2-yl-benzoylamino)-butyric acid] had a solubility in the data set “Solubility pH7.4” of 883 µg/mL (≈ 1800 µM). In addition, the 50% inhibitory concentration (IC50) in data set [1] was found to be 190 nM. Regarding `C[C@@H](C[C@H](NC(=O)c1ccc(-c2ccccc2)cc1F)C(=O)NC(C)(C)Cc1ccc(F)cc1)C(=O)O` [Compound 11, (2S,4S)-4-[(3-Fluoro-biphenyl-4-carbonyl)-amino]-4-[2-(4-fluoro-phenyl)-1,1-dimethyl-ethylcarbamoyl]-2-methyl-butyric acid], in the data set “Solubility pH7.4”, the concentration in solution (solubility) came to 648 µg/mL (≈ 1270 µM). The half-inhibitory concentration (IC50) in data set [1] was found to be 250 nM.

`C[C@@H](C[C@H](NC(=O)C1CCN(c2ccc(F)cc2)CC1)C(=O)NC(C)(C)Cc1ccc(F)cc1)C(=O)O` [Compound 12, (2S,4S)-4-[2-(4-Fluoro-phenyl)-1,1-dimethyl-ethylcarbamoyl]-4-{[1-(4-fluoro-phenyl)-piperidine-4-carbonyl]-amino}-2-methyl-butyric acid] returned a solubility in the data set “Solubility pH7.4” of 743 µg/mL (≈ 1440 µM). Besides, in data set [1], the IC50 came out at 320 nM. In the same order, the values of `C[C@@H](C[C@H](NC(=O)c1ccc(-c2ccccc2)cn1)C(=O)NC(C)(C)Cc1ccc(F)cc1)C(=O)O` [Compound 13, 4-[2-(4-Fluoro-phenyl)-1,1-dimethyl-ethylcarbamoyl]-2-methyl-4-[(5-phenyl-pyridine-2-carbonyl)-amino]-butyric acid] are 855 µg/mL (≈ 1740 µM) and 330 nM. In turn, `C[C@@H](C[C@H](NC(=O)c1ccc(-c2ccccc2)nc1)C(=O)NC(C)(C)Cc1ccc(F)cc1)C(=O)O` [Compound 14, (2S,4S)-4-[2-(4-Fluoro-phenyl)-1,1-dimethyl-ethylcarbamoyl]-2-methyl-4-[(6-phenyl-pyridine-3-carbonyl)-amino]-butyric acid] gave a solubility in “Solubility pH7.4” of 775 µg/mL (≈ 1580 µM). In addition, in data set [1], the IC50 is 350 nM.

As for `C[C@@H](C[C@H](NC(=O)N1CCN(c2ccccc2)CC1)C(=O)NC(C)(C)Cc1ccc(F)cc1)C(=O)O` [Compound 15, (2S,4S)-4-[2-(4-Fluoro-phenyl)-1,1-dimethyl-ethylcarbamoyl]-2-methyl-4-[(4-phenyl-piperazine-1-carbonyl)-amino]-butyric acid], the concentration in solution in “Solubility pH7.4” (solubility) was 924 µg/mL (≈ 1850 µM). Also, in data set [1], the IC50 stood at 360 nM.

For `C[C@@H](C[C@H](NC(=O)c1ccc(-c2cccnc2)cc1)C(=O)NC(C)(C)Cc1ccc(F)cc1)C(=O)O` [Compound 16, (2S,4S)-4-[2-(4-Fluoro-phenyl)-1,1-dimethyl-ethylcarbamoyl]-2-methyl-4-(4-pyridin-3-yl-benzoylamino)-butyric acid], the concentration in solution in “Solubility pH7.4” (solubility) came to 365 µg/mL (≈ 743 µM). For the same compound, the concentration for half-maximal inhibition (IC50) in data set [1] stood at 390 nM.

Consider `C[C@@H](C[C@H](NC(=O)N1CCC(c2ccccc2)CC1)C(=O)NC(C)(C)Cc1ccc(F)cc1)C(=O)O` [Compound 18, (2S,4S)-4-[2-(4-Fluoro-phenyl)-1,1-dimethyl-ethylcarbamoyl]-2-methyl-4-[(4-phenyl-piperidine-1-carbonyl)-amino]-butyric acid], for which the concentration in solution in the data set “Solubility pH7.4” (solubility) came to 805 µg/mL (≈ 1620 µM). Further, the half-maximal inhibitory concentration (IC50) in data set [1] came out at 1200 nM. Regarding `Cc1cnc(-c2ccc(C(=O)N[C@@H](C[C@H](C)C(=O)O)C(=O)NC(C)(C)Cc3ccc(F)cc3)cc2)s1` [Compound 19, (2S,4S)-4-[2-(4-Fluoro-phenyl)-1,1-dimethyl-ethylcarbamoyl]-2-methyl-4-[4-(5-methyl-thiazol-2-yl)-benzoylamino]-butyric acid], the concentration in solution in “Solubility pH7.4” (solubility) came to 637 µg/mL (≈ 1250 µM). Also, the IC50 in data set [1] came to 1200 nM. As for `C[C@@H](C[C@H](NC(=O)c1cnc(-c2ccc(F)cc2)s1)C(=O)NC(C)(C)Cc1ccc(F)cc1)C(=O)O` [Compound 20, (2S,4S)-4-[2-(4-Fluoro-phenyl)-1,1-dimethyl-ethylcarbamoyl]-4-{[2-(4-fluoro-phenyl)-thiazole-5-carbonyl]-amino}-2-methyl-butyric acid], in the data set “Solubility pH7.4”, the concentration in solution (solubility) came to 493 µg/mL (≈ 956 µM). Also, the concentration for half-maximal inhibition (IC50) in data set [1] worked out at 1400 nM.
